Results taken from US20070004715A1, “Novel spiro-quinuclidinyl derivatives for the treatment of central nervous system disorders” (priority 2005, published 2007).
Counter-ions that a name gives are not always drawn.

Experiments:
fluo-Aβ1-40 = biological target: T1, fluo-Aβ1-40 (Homo sapiens, UniProt P05067); assay: Aβ Aggregation Assay (Synthaloid plates, fluo-Aβ1-40); type: biochemical; conditions: 10 μM test compound, 100 nM fluo-Aβ1-40, 2.5 hr at room temperature; higher % = greater effectiveness at preventing aggregation
T1 construct: added 100 nM of fluo-Aβ1-40 in 100 μl
T1 sequence (P05067 672-711): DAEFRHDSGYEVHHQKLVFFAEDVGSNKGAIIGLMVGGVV
Procedure: Aβs are known to form aggregates leading to the formation of amyloid plaques that are characteristic of Alzheimer's disease.
This aggregation assay was validated using both ^125I-Aβ1-40 and fluo-Aβ1-40 in a buffer containing 50 mM HEPES, pH 7.4, 0.1% BSA, 10% FCS and protease inhibitors.
To each well of a 96-well Synthaloid plate was added 100 nM of fluo-Aβ1-40 in 100 μl. To each well was then added 10 μM of test compound. The plate was then allowed to incubate for 2.5 hr at room temperature. At the end of the incubation, unbound protein in the wells was removed by three washes using the buffer as described above. The amount of bound protein (which represents the amount of Aβ aggregation) was measured either by fluorescence measurements.
Higher fluorescence values relative to vehicle wells were interpreted as an indication of greater Aβ aggregation. […] Higher % values in the data in Table 4 below, below indicates greater effectiveness at preventing aggregation.
(§1) Both the Aβ aggregation assay as described in Example 55, particularly as run using the ^125I-Aβ1-40, and the % inhibition of AcH release assay as described in Example 56, were highly variable on a run-to-run basis. However, the relative activities of the tested compounds were reproducible.

[1] = test system: Synaptosomes from guinea pig hippocampus; assay: % Inhibition of AcH Release Assay (K+-evoked 3H-acetylcholine release); type: cell-based; conditions: synaptosomes pre-treated with 10 μM test compound prior to 65 mM K+ stimulation
Procedure: Synaptosomes from guinea pig hippocampus were incubated with 0.1 μM ^3H-choline and then subjected to repeated washes with buffer to remove unincorporated ^3H-choline. The synaptosomes were then treated with 65 mM K^+ for 30 seconds to elicit 3H-acetylcholine release.
To determine if a test compound will inhibit acetylcholine release, the synaptosomes were pre-treated with 10 μM of the test compound prior to the K+ stimulation. The decrease or increase in acetylcholine release was then measured by superfusion.
as §1

Compound | Aβ aggregation inhibition (%) (fluo-Aβ1-40) | Inhibition of acetylcholine release [1] [%]
O=C1OC2(CN3CCC2CC3)C(=O)N1c1ccc(F)cc1F (stereo not shown) [Compound 21, 3′-(2,4-difluorophenyl)-quinuclidine-3-spiro-5′-oxazolidine-2′,4′-dione trifluoroacetate salt] | 1 | 17
O=C1OC2(CN3CCC2CC3)C(=O)N1c1cc(C(F)(F)F)cc(C(F)(F)F)c1 (stereo not shown) [Compound 8, 3′-(3,5-bis(trifluoromethyl)phenyl)-quinuclidine-3-spiro-5′-oxazolidine-2′,4′-dione trifluoroacetate salt] | 0 | 77
CCOC(=O)c1cccc(N2C(=O)OC3(CN4CCC3CC4)C2=O)c1 (stereo not shown) [Compound 13, 3′-(3-ethoxycarbonylphenyl)-quinuclidine-3-spiro-5′-oxazolidine-2′,4′-dione trifluoroacetate salt] | 100 | 20
O=C1OC2(CN3CCC2CC3)C(=O)N1c1cccc(O)c1 (stereo not shown) [Compound 15, 3′-(3-hydroxyphenyl)-quinuclidine-3-spiro-5′-oxazolidine-2′,4′-dione trifluoroacetate salt] | 50 | 55
O=C1OC2(CN3CCC2CC3)C(=O)N1c1cccc(Cl)c1 (stereo not shown) [Compound 10, 3′-(3-chlorophenyl)-quinuclidine-3-spiro-5′-oxazolidine-2′,4′-dione trifluoroacetate salt] | 50 | 60
Cc1ccc(C)c(N2C(=O)OC3(CN4CCC3CC4)C2=O)c1 (stereo not shown) [Compound 11, 3′-(2,5-dimethyphenyl)-quinuclidine-3-spiro-5′-oxazolidine-2′,4′-dione trifluoroacetate salt] | 0 | 71
Cc1ccc(N2C(=O)OC3(CN4CCC3CC4)C2=O)cc1C (stereo not shown) [Compound 16, 3′-(3,4-dimethylphenyl)-quinuclidine-3-spiro-5′-oxazolidine-2′,4′-dione trifluoroacetate salt] | 67 | 44
COc1ccc(N2C(=N)CC3(CN4CCC3CC4)OC2=O)cc1 (stereo not shown) [Compound 100, 3′-(4-methoxyphenyl)-quinuclidine-3-spiro-4′-iminooxan-2-ones trifluoroacetate salt] | 48 | 34
Cc1cc(C)cc(N2C(=N)CC3(CN4CCC3CC4)OC2=O)c1 (stereo not shown) [Compound 106, 3′-(3,5-dimethylphenyl)-quinuclidine-3-spiro-4′-iminooxan-2-ones trifluoroacetate salt] | 80 | 18
O=C1OC2(CN3CCC2CC3)C(=O)N1c1ccc(O)cc1 (stereo not shown) [Compound 18, 3′-(4-hydroxyphenyl)-quinuclidine-3-spiro-5′-oxazolidine-2′,4′-dione trifluoroacetate salt] | 0 | 23
O=C1OC2(CN3CCC2CC3)C(=O)N1c1ccc(Cl)c(Cl)c1 (stereo not shown) [Compound 5, 3′-(3,4-dichlorophenyl)-quinuclidine-3-spiro-5′-oxazolidine-2′,4′-dione trifluoroacetate salt] | 98 | 27
O=C1OC2(CN3CCC2CC3)C(=O)N1c1cccc(C(F)(F)F)c1 (stereo not shown) [Compound 1, 3′-(3-trifluoromethylphenyl)-quinuclidine-3-spiro-5′-oxazolidine-2′,4′-dione trifluoroacetate salt] | 100 | 36
Cc1ccc(N2C(=N)CC3(CN4CCC3CC4)OC2=O)cc1 (stereo not shown) [Compound 101, 3′-(4-methylphenyl)-quinuclidine-3-spiro-4′-iminooxan-2-ones trifluoroacetate salt] | 27 | 24
O=C1OC2(CN3CCC2CC3)C(=O)N1c1cccc([N+](=O)[O-])c1 (stereo not shown) [Compound 6, 3′-(3-nitrophenyl)-quinuclidine-3-spiro-5′-oxazolidine-2′,4′-dione trifluoroacetate salt] | 21 | 64
N=C1CC2(CN3CCC2CC3)OC(=O)N1c1cc(Cl)cc(Cl)c1 (stereo not shown) [Compound 107, 3′-(3,5-dichlorophenyl)-quinuclidine-3-spiro-4′-iminooxan-2-ones trifluoroacetate salt] | 30 | 54
Cc1cc(C)cc(N2C(=O)OC3(CN4CCC3CC4)C2=O)c1 (stereo not shown) [Compound 20, 3′-(3,5-dimethylphenyl)-quinuclidine-3-spiro-5′-oxazolidine-2′,4′-dione trifluoroacetate salt] | 0 | 53
COc1cccc(N2C(=O)OC3(CN4CCC3CC4)C2=O)c1 (stereo not shown) [Compound 14, 3′-(3-methoxyphenyl)-quinuclidine-3-spiro-5′-oxazolidine-2′,4′-dione trifluoroacetate salt] | 42 | 14
N=C1CC2(CN3CCC2CC3)OC(=O)N1c1ccc(Cl)c(Cl)c1 (stereo not shown) [Compound 104, 3′-(3,4-dichlorophenyl)-quinuclidine-3-spiro-4′-iminooxan-2-ones trifluoroacetate salt] | 0 | 43
COc1ccc(N2C(=O)OC3(CN4CCC3CC4)C2=O)cc1 (stereo not shown) [Compound 3, 3′-(4-methoxyphenyl)-quinuclidine-3-spiro-5′-oxazolidine-2′,4′-dione trifluoroacetate salt] | 100 | 27
COc1ccc(OC)c(N2C(=O)OC3(CN4CCC3CC4)C2=O)c1 (stereo not shown) [Compound 29, 3′-(2,5-dimethoxyphenyl)-quinuclidine-3-spiro-5′-oxazolidine-2′,4′-dione trifluoroacetate salt] | 100 | 20
Cc1ccccc1N1C(=O)OC2(CN3CCC2CC3)C1=O (stereo not shown) [Compound 26, 3′-(2-methylphenyl)-quinuclidine-3-spiro-5′-oxazolidine-2′,4′-dione trifluoroacetate salt] | 45 | 54
O=C1OC2(CN3CCC2CC3)C(=O)N1c1cc(Cl)ccc1Cl (stereo not shown) [Compound 12, 3′-(2,5-dichlorophenyl)-quinuclidine-3-spiro-5′-oxazolidine-2′,4′-dione trifluoroacetate salt] | 85 | 17
Cc1ccc(N2C(=O)OC3(CN4CCC3CC4)C2=O)cc1Cl (stereo not shown) [Compound 24, 3′-(3-chloro-4-methylphenyl)-quinuclidine-3-spiro-5′-oxazolidine-2′,4′-dione trifluoroacetate salt] | 40 | 44
Cc1cc(O)ccc1N1C(=O)OC2(CN3CCC2CC3)C1=O (stereo not shown) [Compound 19, 3′-(4-hydroxy-2-methylphenyl)-quinuclidine-3-spiro-5′-oxazolidine-2′,4′-dione trifluoroacetate salt] | 0 | 27
CC(C)c1ccccc1N1C(=O)OC2(CN3CCC2CC3)C1=O (stereo not shown) [Compound 28, 3′-(2-isopropylphenyl)-quinuclidine-3-spiro-5′-oxazolidine-2′,4′-dione trifluoroacetate salt] | 0 | 47
CCOC(=O)CN1C(=O)OC2(CN3CCC2CC3)C1=O (stereo not shown) [Compound 30, 3′-(2-ethoxycarbonylmethyl)-quinuclidine-3-spiro-5′-oxazolidine-2′,4′-dione hydrochloride] | 100 | 21
O=C1OC2(CN3CCC2CC3)C(=O)N1c1cccc(F)c1 (stereo not shown) [Compound 25, 3′-(3-fluorophenyl)-quinuclidine-3-spiro-5′-oxazolidine-2′,4′-dione trifluoroacetate salt] | 5 | 48
COc1ccc(N2C(=O)OC3(CN4CCC3CC4)C2=O)c(C)c1 (stereo not shown) [Compound 4, 3′-(4-methoxy-2-methylphenyl)-quinuclidine-3-spiro-5′-oxazolidine-2′,4′-dione trifluoroacetate salt] | 95 | 36
Cc1cccc(N2C(=O)OC3(CN4CCC3CC4)C2=O)c1C (stereo not shown) [Compound 27, 3′-(2,3-dimethylphenyl)-quinuclidine-3-spiro-5′-oxazolidine-2′,4′-dione trifluoroacetate salt] | 35 | 25
